Data taken from patent US9580390B2, “Indazole compounds as kinase inhibitors and method of treating cancer with same” (University Health Network, priority 2011, dated 2017).

What was measured:
Aurora-B = target: T1, Aurora-B (Homo sapiens, UniProt Q96GD4); assay: Panel of 270 human kinases (Millipore); assay type: biochemical
T1 construct: purchased Millipore Corporation
Procedure: (§1) The inhibitory activity of selected compounds of the invention (A335, A405, A410, A261, A300 and A363) was evaluated against a panel of 270 different human kinase enzymes by Millipore Corporation. The % Inhibition was determined by the formula: % Inhibition=100×(1−(experimental value−background value)/(high activity control−background value)).

Met(Y1248C) = target: T2, Met(Y1248C) (Homo sapiens, UniProt P08581, Y1230C); assay: Panel of 270 human kinases (Millipore); assay type: biochemical
T2 construct: purchased Millipore Corporation
T2 sequence (P08581 25-1408 isoform P08581-2 Y1248C limits assumed): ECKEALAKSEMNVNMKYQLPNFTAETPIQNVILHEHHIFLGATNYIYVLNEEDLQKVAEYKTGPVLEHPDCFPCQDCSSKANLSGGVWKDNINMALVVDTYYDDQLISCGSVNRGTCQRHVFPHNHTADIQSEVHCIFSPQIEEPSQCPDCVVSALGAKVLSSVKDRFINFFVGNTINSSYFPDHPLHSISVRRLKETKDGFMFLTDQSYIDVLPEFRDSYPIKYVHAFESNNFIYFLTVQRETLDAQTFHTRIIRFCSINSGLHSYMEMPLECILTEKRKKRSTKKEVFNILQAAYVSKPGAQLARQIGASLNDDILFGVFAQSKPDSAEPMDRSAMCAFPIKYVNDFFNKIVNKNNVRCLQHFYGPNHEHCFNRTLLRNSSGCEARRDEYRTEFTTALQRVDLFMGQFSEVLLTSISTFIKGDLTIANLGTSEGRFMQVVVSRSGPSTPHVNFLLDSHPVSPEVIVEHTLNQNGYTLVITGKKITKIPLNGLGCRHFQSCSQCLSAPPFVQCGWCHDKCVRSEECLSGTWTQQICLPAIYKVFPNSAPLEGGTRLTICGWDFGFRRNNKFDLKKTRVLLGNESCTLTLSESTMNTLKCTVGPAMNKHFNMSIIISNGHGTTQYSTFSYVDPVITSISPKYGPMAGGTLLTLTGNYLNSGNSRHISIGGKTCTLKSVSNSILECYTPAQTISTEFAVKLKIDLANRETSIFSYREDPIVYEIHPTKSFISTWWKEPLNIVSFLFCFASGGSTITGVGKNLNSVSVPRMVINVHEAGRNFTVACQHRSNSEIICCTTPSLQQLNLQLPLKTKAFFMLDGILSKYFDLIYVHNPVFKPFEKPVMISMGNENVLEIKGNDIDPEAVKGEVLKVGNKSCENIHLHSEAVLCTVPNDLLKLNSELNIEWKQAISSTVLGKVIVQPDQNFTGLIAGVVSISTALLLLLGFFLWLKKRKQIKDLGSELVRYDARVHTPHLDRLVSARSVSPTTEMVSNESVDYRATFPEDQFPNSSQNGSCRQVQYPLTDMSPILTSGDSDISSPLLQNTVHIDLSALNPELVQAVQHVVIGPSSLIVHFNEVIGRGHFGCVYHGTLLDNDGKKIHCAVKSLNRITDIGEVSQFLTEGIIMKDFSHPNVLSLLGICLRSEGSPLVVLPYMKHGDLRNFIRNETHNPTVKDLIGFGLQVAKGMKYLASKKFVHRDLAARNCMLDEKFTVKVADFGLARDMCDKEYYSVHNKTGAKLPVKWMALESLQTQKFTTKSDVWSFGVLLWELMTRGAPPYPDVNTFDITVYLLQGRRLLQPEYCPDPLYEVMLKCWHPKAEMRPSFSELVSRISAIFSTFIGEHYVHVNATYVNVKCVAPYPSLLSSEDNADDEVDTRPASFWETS
Procedure: as §1

ALK = target: T3, ALK (Homo sapiens, UniProt Q9UM73); assay: Panel of 270 human kinases (Millipore); assay type: biochemical
T3 construct: purchased Millipore Corporation
T3 sequence (Q9UM73 19-1620): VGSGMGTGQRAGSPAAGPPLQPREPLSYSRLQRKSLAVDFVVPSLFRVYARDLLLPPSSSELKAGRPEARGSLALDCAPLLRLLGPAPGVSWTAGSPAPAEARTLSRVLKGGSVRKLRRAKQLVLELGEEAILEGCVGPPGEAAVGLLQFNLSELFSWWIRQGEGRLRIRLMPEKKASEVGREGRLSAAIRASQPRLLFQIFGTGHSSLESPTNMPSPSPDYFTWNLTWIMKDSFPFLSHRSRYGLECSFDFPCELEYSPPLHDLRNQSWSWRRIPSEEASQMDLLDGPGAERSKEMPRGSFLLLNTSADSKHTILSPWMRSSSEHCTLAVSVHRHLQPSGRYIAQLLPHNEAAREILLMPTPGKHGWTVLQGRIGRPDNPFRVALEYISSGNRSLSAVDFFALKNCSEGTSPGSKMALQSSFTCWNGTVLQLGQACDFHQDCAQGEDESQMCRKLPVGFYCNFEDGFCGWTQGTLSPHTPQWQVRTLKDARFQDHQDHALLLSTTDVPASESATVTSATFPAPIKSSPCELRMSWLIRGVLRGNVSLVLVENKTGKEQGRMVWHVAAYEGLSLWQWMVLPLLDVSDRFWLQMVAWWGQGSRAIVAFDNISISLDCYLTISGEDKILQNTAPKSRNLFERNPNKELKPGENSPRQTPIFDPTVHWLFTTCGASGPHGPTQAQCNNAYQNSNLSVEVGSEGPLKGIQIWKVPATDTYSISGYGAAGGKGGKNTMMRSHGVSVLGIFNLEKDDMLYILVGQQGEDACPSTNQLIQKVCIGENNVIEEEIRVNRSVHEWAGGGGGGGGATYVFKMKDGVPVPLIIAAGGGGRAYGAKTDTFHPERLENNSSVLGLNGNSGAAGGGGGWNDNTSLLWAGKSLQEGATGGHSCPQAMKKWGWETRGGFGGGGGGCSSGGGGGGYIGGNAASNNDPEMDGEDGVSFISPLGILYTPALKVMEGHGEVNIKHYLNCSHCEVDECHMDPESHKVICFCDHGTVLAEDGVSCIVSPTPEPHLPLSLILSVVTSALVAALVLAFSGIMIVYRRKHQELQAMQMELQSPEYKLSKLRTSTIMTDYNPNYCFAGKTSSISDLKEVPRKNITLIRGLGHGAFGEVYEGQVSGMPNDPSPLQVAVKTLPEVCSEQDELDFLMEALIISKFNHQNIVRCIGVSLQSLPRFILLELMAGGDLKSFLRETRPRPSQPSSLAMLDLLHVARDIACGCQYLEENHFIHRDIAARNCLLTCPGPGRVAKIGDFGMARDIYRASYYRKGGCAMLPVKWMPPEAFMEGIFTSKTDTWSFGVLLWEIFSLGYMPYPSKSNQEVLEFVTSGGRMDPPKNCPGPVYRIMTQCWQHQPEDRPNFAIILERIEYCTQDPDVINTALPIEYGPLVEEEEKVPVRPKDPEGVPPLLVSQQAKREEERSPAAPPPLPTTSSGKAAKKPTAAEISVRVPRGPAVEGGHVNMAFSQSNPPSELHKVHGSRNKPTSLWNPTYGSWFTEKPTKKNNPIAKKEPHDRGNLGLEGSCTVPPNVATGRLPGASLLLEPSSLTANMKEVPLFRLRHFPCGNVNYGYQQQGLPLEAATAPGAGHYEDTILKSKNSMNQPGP
Procedure: as §1

MUSK = target: T4, MUSK (Homo sapiens, UniProt O15146); assay: Panel of 270 human kinases (Millipore); assay type: biochemical
T4 construct: purchased Millipore Corporation
T4 sequence (O15146 24-869): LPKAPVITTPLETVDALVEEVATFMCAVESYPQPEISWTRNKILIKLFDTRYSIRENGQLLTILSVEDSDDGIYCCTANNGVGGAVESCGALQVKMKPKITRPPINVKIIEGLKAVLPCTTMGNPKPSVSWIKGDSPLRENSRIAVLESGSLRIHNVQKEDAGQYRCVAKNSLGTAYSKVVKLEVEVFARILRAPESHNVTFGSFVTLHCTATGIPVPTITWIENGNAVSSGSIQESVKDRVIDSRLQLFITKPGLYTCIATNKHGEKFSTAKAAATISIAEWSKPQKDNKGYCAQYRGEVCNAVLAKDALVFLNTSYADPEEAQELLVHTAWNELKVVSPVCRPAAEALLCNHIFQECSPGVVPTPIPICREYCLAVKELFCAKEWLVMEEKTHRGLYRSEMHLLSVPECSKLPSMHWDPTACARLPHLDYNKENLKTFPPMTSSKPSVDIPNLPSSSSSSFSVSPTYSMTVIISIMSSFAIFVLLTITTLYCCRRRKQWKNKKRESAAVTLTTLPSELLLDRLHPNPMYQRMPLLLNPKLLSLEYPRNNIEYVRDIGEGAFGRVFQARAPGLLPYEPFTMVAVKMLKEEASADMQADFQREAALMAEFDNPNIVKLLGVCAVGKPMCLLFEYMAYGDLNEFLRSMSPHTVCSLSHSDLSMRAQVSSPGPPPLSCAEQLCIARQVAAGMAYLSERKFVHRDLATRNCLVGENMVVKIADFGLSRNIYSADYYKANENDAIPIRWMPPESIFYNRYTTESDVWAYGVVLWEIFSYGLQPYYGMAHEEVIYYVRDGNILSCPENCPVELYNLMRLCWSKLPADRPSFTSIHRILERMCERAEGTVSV
Procedure: as §1

MAPK2 = target: T5, MAPK2 (Homo sapiens, UniProt P28482); assay: Panel of 270 human kinases (Millipore); assay type: biochemical
T5 construct: purchased Millipore Corporation
T5 sequence (P28482 whole entry): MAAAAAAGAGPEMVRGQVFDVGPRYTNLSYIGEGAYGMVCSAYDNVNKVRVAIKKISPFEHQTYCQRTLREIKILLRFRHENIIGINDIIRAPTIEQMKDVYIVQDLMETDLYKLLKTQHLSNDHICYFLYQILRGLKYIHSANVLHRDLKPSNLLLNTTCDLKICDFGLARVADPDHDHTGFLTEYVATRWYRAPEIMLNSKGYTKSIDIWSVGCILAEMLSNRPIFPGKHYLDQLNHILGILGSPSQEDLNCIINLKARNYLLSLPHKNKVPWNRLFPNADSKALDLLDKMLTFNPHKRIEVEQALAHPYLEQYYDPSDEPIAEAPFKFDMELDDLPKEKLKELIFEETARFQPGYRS
Procedure: as §1

TICs (Ovarian 2393A) = assay: Ovarian tumor-initiating cell growth inhibition (Alamar Blue); assay type: cell-based; conditions: 144 h; Ovarian 2393A TICs, 6 days; read-out: Tumor Initiating Cell GI50 Range Ovarain 2393A
Text: Materials and Methods: Non-tissue or tissue cultured treated T-75 flask and 96-well plates were purchased from VWR. Vitamin B-27 supplement, MEM NEAA (minimum essential medium non essential amino acids), sodium pyruvate, L-glutamine, N2 supplement, penicillin-streptomycin and fungizone/amphotericin B were obtained from Invitrogen. Lipid mixture, heparin and EGF were purchased from Sigma; bFGF from BD Biosciences. Tumor Initiating Cells (TICs) from colon were routinely maintained using non-tissue cultured treated T-75 flasks in DMEM:F12 medium containing 0.2×B-27 supplement, 4 ug/ml heparin, 1×MEM NEAA, 1× sodium pyruvate, 1 mM glutamine, 10 pg/ul bFGF, 20 pg/ul EGF, 1×N2 supplement, lipid mixture, penicillin-streptomycin and fungizone/amphotericin B. Ovarian TICs were routinely maintained using tissue cultured treated T-75 flasks in DMEM:F12 medium containing 1×B-27 supplement, 4 ug/ml heparin, 20 pg/ul bFGF, 20 pg/ul EGF and penicillin-streptomycin.
Assay Protocol: Compounds described herein were dissolved in DMSO and further diluted in cell culture medium for GI50 determination. Colon TICs were trypsinized and seeded into non-tissue cultured treated 96-well plates with 4,000 cells/well. After 24 h, compound was added into the cell culture at different concentrations, and the final concentration of DMSO was adjusted to 0.1%. Cells were then cultured at 37° C. for 9 days. Ovarian TICs were trypsinized and seeded into tissue cultured treated 96-well plates with 1,000 cells/well. After 24 h, compound was added into the cell culture at different concentrations, and the final concentration of DMSO was adjusted to 0.1%. Cells were then cultured at 37° C. for 6 days. Cell viability was assessed by Alamar Blue assay: 10 ul of Alamar Blue was added into each well. After 4 hours incubation at 37° C., fluorescence was recorded at excitation 544 and emission 590. GI50 (Growth inhibition) was calculated using GraphPad Prism 4.0 software.

TICs (Colon 12) = assay: Colon tumor-initiating cell growth inhibition (Alamar Blue); assay type: cell-based; conditions: 216 h; Colon 12 TICs, 9 days; read-out: Tumor Initiating Cell GI50 Range Colon 12

T1 sequence (Q96GD4 whole entry): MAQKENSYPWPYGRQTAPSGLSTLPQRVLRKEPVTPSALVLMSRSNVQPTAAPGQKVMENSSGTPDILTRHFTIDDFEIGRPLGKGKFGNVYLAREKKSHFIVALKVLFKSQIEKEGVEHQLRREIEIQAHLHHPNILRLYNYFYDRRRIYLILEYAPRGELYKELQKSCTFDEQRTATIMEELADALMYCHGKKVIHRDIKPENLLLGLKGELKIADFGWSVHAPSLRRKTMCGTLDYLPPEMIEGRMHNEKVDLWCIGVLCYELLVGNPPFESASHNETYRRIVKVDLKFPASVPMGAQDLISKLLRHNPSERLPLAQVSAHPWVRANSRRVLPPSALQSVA

SMILES: CC(C)C[C@@H](NC(=O)c1ccc2[nH]nc(-c3ccc(N4CCN(C5COC5)CC4)cc3)c2c1)c1ccccc1Cl [Example A300, (R)-N-(1-(2-chlorophenyl)-3-methylbutyl)-3-(4-(4-(oxetan-3-yl)piperazin-1-yl)phenyl)-1H-indazole-5-carboxamide]
- inhibition at 1 µM (Aurora-B): 69%
- inhibition at 1 µM (Met(Y1248C)): 40%
- inhibition at 1 µM (ALK): 0%
- inhibition at 1 µM (MUSK): 54%
- inhibition at 1 µM (MAPK2): 5%
- GI50 (TICs (Ovarian 2393A)): 100 to 500 nM
- GI50 (TICs (Colon 12)): < 100 nM

SMILES: CC(C)[C@H](NC(=O)c1ccc2[nH]nc(-c3ccc(OC4CC5CCC(C4)N5C4COC4)cc3)c2c1)c1ccccc1Cl (some centres unmarked) [Example A335]
- inhibition at 1 µM (Aurora-B): 87%
- inhibition at 1 µM (Met(Y1248C)): 42%
- inhibition at 1 µM (ALK): 7%
- inhibition at 1 µM (MUSK): 91%
- inhibition at 1 µM (MAPK2): 0%
- GI50 (TICs (Ovarian 2393A)): < 100 nM
- GI50 (TICs (Colon 12)): < 100 nM
